From PMC9026428, “New Peptide Based Fluconazole Conjugates with Expanded Molecular Targets” (Pharmaceutics, 2022)
Values after ≈ are worked out from the molar mass of the structure shown. Like-named read-outs stand apart in the source and are kept apart here. Non-standard residues stand in square brackets, D forms with d. Residues, ends and D or L forms follow the SMILES beside them. *: point of attachment. X1 = O=C(CCCC(=O)*)OC(Cn1cncn1)(Cn1cncn1)c1ccc(F)cc1F; Nle = CCCC[C@H](N)C(=O)O

Columns and labels:
[1] = tested on: Candida albicans 190; assay: microbe, parasite or virus in culture; conditions: 37 °C; for MIC50 / MIC90: C. albicans 190 (fluconazole-resistant clinical isolate), RPMI 1640/MOPS pH 7.0, 24 h, triplicate; for MIC50: at least 50% growth inhibition vs growth control; for MIC90: lowest concentration with no visible growth
Summary of the method: (§1)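 Broth microdilution per CLSI M27-A3 with minor modifications, in RPMI 1640 buffered to pH 7.0 with 0.165 M MOPS, 24 h at 37 °C, about 1% DMSO final, triplicate. B3 is a fluconazole-sensitive early isolate used to assess efflux-transporter removal.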

[2] = tested on: Candida albicans 48; assay: microbe, parasite or virus in culture; conditions: 37 °C; for MIC50 / MIC90: C. albicans 48 (fluconazole-resistant clinical isolate), RPMI 1640/MOPS pH 7.0, 24 h, triplicate; for MIC50: at least 50% growth inhibition vs growth control; for MIC90: lowest concentration with no visible growth
Summary of the method: as §1

[3] = MTT cytotoxicity assay; conditions: human
Procedure: (§2) The assessment of antifungal potential of synthesized agents was carried out using four reference strains (C. albicans ATCC 10231, C. albicans SC5314, C. glabrata DSM […] and C. krusei DSM […]) and six clinical isolates of fluconazole-resistant C. albicans that were provided by the Hospital of Medical University of Gdansk, Poland. Moreover, four C. albicans isolates, assigned as B3, B4, Gu4 and Gu5, were used for investigation whether the synthesized fluconazole derivatives were effectively removed from the yeast cells by the drug efflux transporters, as in the case of fluconazole. These strains were kindly provided by Prof. Joachim Morschhäuser from University of Würzburg (Würzburg, Germany). Strains Gu4 and B3 were fluconazole-sensitive isolates obtained from early infection episodes, while Gu5 and B4 were the corresponding fluconazole-resistant isolates obtained from later episodes in the same patients treated with fluconazole. The lack of susceptibility of the Gu5 strain to fluconazole was a consequence of overexpression of CDR1/2 genes encoding ABC transporters, whereas the resistance of B4 strain was caused by overexpression of the MDR1 gene encoding a membrane transport protein of the major facilitator superfamily (MFS). All of these Candida spp. strains were maintained on YPD agar plates (1% (w/v) yeast extract, 2% (w/v) peptone, 2% (w/v) glucose, 2% (w/v) agar) at 30 °C for 16–24 h. For all of the assays aimed at assessing the antifungal potential of the synthesized agents, the yeasts were cultivated at 37 °C in RPMI 1640 medium (with L-glutamine, without sodium bicarbonate, Sigma-Aldrich, Darmstadt, Germany)) buffered to a pH of 7.0 with 0.165 M morpholinepropanesulfonic acid (MOPS) buffer (Sigma-Aldrich). In this study, we used the human foreskin fibroblast cell line Hs27 (ATCC CRL 1634TM) and the human endothelial cell line HUVEC (C2519A), purchased from Lonza Group AG, (Basel, Switzerland). The Hs27 cells were maintained in cell media consisting of Dulbecco’s modified Eagles medium (DMEM), (Corning, Arizona, USA) with 10% fetal bovine serum (FBS), (Corning, Port Elizabeth, South Africa), 1% penicillin/streptomycin (Sigma-Aldrich Inc., Darmstadt, Germany), and 1% L-glutamine (Corning, Arizona, USA). The human endothelial cell line was maintained in cell media consisting of Endothelial Cell Growth Medium-2 Single Quots Kit (Lonza, USA). Both cell lines were cultured in an incubator at 37 °C and 5% CO2.
(§3) Hs27 and HUVEC mammalian cell lines were cultured as mentioned above. Once cell lines were about 80% confluent, cells were counted by a hemacytometer (Hausser Scientific, Horsham, PA, USA) and plated in 96-well microtiter plates at concentrations of 4500 cells per well for Hs27 and 2000 cells per well for HUVEC. Cells were allowed to attach overnight. […] The final concentration of DMSO was ensured to be around 1% in all experiments. Cells were incubated with studied compounds for 72 h at 37 °C and 5% CO2. After incubation, 20 µL of MTT solution in PBS (4 mg/mL) was added to all wells and incubated further for 3 h at 37 °C. Formed formazan crystals were dissolved in 150 µL DMSO, and absorbance was measured using an Asys UVM340 multi-well plate reader at λ = 540 nm. Cytotoxicity was determined compared to drug-free control. All experiments were performed in biological triplicates.

[4] = tested on: Hs27 cells (human foreskin fibroblast cell line); assay: MTT cytotoxicity assay
Procedure: as §2, §3

[5] = MTT cytotoxicity assay; conditions: human; remark: listed apart in the source
Procedure: as §2, §3

[6] = tested on: HUVEC cells (human umbilical venous endothelial primary cells); assay: MTT cytotoxicity assay
Procedure: as §2, §3

[7] = tested on: Candida spp. strains tested; assay: Antifungal activity against the whole panel of strains tested; assay type: cell-based; conditions: panel of Table 2, 8–250 µM
Procedure: Antifungal activity of the tested compounds against yeast cells was determined in 96-well plates as described in the CLSI document M27-A3 [39], with minor modifications (CLSI, 2008). Suspensions of the microorganisms were prepared by taking one loop of pure culture into sterile water and adjusting optical density to 0.1 at 660 nm wavelength and further 50-fold dilution in RPMI 1640 medium, resulting in cell concentration of approximately 2 × 10^4 CFU/mL [21]. Then, 100 μL of cells were added to the wells of a 96-well microtiter plate that contained 16–500 μM tested compounds and 16–500 μM of FLC or 0.2–62 μM AmB. The plates were incubated for 24 h at 37 °C. Each test was performed in triplicate. […] The MIC90 was defined as the lowest concentration of drug showing no visible growth; MIC50 was defined as the concentration that yielded at least 50% growth inhibition when compared with the growth control well.

[8] = tested on: C. albicans SC5314; assay: Membrane permeabilization assay by propidium iodide uptake (flow cytometry, fluorescence microscopy); assay type: cell-based, Candida albicans
Procedure: Suspensions of C. albicans SC5314 were prepared by taking one loop of pure culture growth from 24 h YPD agar plates into RPMI 1640 medium and adjusting optical density to 0.1 at 660 nm wavelength. […] The cell suspensions were then treated for 0.5, 2, 4, 6, and 24 h at 37 °C with continuous agitation (180 rpm). The cells were then centrifuged and resuspended in 200 µL of PBS buffer (pH 7.4). Subsequently, cells were treated with propidium iodide (1 mg/mL, final concentration) and incubated for 30 min at room temperature in the dark. Cellular fluorescence was visualized using lens 20×, using Olympus Fluorescence Microscope BX60 (Olympus, Tokyo, Japan). The images were also post-processed utilizing cell Sens program. The fluorescence intensity emitted by DNA-bound propidium iodide was measured using a flow cytometer (Merck Millipore guava easyCyte 8, Darmstadt, Germany). Data were obtained from at least two independent experiments.

[9] = tested on: C. albicans SC5314; conditions: C. albicans SC5314, 1 × MFC, time-kill over 24 h, RPMI 1640, 37 °C
Procedure: Antifungal time-kill studies were carried out by a method previously described and evaluated by Klepser et al. [40]. A starting inoculum was prepared by inoculating a tube of sterile water with growth from 24 h YPD agar plates (C. albicans SC5314), and OD660 was adjusted to about 0.1 (around 10^6 cells per 1 mL). […] A negative control (growth medium without drug or organism) was also included at each time of testing. Tubes were incubated at 37 °C on an orbital shaker and vortexed before removing a sample for the determination of colony counts. After the appropriate time of incubation (0.5, 2, 4, 6, and 24 h), 1 mL of each suspension was centrifuged (2 min, 9170× g), and the pellet was re-suspended in 1 mL of PBS pH 7.4. Ten-fold serial dilutions with PBS were prepared, and 100 μL of each was inoculated on YPD agar plates in duplicate. Plates were incubated for 24 h at 37 °C. Colony forming units in the range of 30–300 were counted (on the plates containing from 30 to 300 colonies) and the number of yeast cells in 1 mL (CFU/mL) was calculated [21].

[10] = Hs27 cells, MTT, 72 h, 37 °C, 100–1.5 μM, biological triplicates
[11] = HUVEC cells, MTT, 72 h, 37 °C, 100–1.5 μM, biological triplicates

| SMILES | MIC50 [1] | MIC90 [1] | MIC50 [2] | MIC90 [2] | IC50 at 72 h [3] | In vitro cytotoxicity IC90 ± SEM [4, 10] | IC50 at 72 h [5] | In vitro cytotoxicity IC90 ± SEM [6, 11] | antifungal activity against the strains tested, in words [7] | MFC ([1]; C. albicans 190, aliquots plated on YPD agar, 24 h, lowest concentration with no colony growth) | MFC ([2]; C. albicans 48, aliquots plated on YPD agar, 24 h, lowest concentration with no colony growth) | cell membrane disruption (PI uptake), in words [8] | reduction in yeast cell count [9] | IC50 [4] | In vitro cytotoxicity IC90 ± SEM [4] | IC50 [6] | In vitro cytotoxicity IC90 ± SEM [6] |
| --- | --- | --- | --- | --- | --- | --- | --- | --- | --- | --- | --- | --- | --- | --- | --- | --- | --- |
| CSCC[C@H](NC(=O)[C@H](C)NC(=O)[C@H](CCCNC(=N)N)NC(=O)[C@H](CCCCN)NC(=O)[C@H](Cc1c[nH]c2ccccc12)NC(=O)[C@H](CCC(N)=O)NC(=O)[C@H](Cc1ccccc1)NC(=O)[C@H](CS)NC(=O)CCCC(=O)OC(Cn1cncn1)(Cn1cncn1)c1ccc(F)cc1F)C(=O)N[C@@H](CCCNC(=N)N)C(=O)N[C@@H](CCCCN)C(=O)N[C@H](C(=O)N[C@@H](CCCNC(=N)N)C(N)=O)C(C)C [FLCpOH-HLopt2-NH2] (X1-CFQWKRAMRKVR-NH2) | 250 µM (≈ 503 µg/mL) | >250 µM | 250 µM (≈ 503 µg/mL) | >250 µM | > 100 µM | >100 µM | > 100 µM | >100 µM | moderately or poorly active | – | – | – | – | – | – | – | – |
| CSCC[C@H](NC(=O)[C@H](CCCNC(=N)N)NC(=O)[C@H](Cc1c[nH]c2ccccc12)NC(=O)[C@H](CCC(N)=O)NC(=O)[C@H](Cc1c[nH]c2ccccc12)NC(=O)[C@H](CCCNC(=N)N)NC(=O)[C@H](CCCNC(=N)N)NC(=O)[C@H](CS)NC(=O)[C@H](CCCCN)NC(=O)[C@H](Cc1ccccc1)NC(=O)CCCC(=O)OC(Cn1cncn1)(Cn1cncn1)c1ccc(F)cc1F)C(N)=O [FLCpOH-LFacinB(2-11)-NH2] (X1-FKCRRWQWRM-NH2) | 190 µM (≈ 361 µg/mL) | 250 µM (≈ 475 µg/mL) | 250 µM (≈ 475 µg/mL) | >250 µM | > 100 µM | >100 µM | > 100 µM | >100 µM | moderately or poorly active | – | – | – | – | – | – | – | – |
| CCCC[C@H](NC(=O)CCCC(=O)OC(Cn1cncn1)(Cn1cncn1)c1ccc(F)cc1F)C(=O)N[C@@H](Cc1ccccc1)C(=O)N[C@@H](CCCCN)C(=O)N[C@@H](CS)C(=O)N[C@@H](CCCNC(=N)N)C(=O)N[C@@H](CCCNC(=N)N)C(=O)N[C@@H](Cc1c[nH]c2ccccc12)C(=O)N[C@@H](CCC(N)=O)C(=O)N[C@@H](Cc1c[nH]c2ccccc12)C(=O)N[C@@H](CCCNC(=N)N)C(=O)N[C@@H](CCCC)C(=O)N[C@@H](CCCCN)C(=O)N[C@@H](CCCCN)C(=O)N[C@@H](CC(C)C)C(=O)NCC(N)=O [FLCpOH-LFacinB[Nle^1,11]-NH2] (X1-[Nle]FKCRRWQWR[Nle]KKLG-NH2) | 90 µM (≈ 218 µg/mL) | 125 µM (≈ 302 µg/mL) | 250 µM (≈ 605 µg/mL) | >250 µM | > 100 µM | >100 µM | 75.6 ± 1.73 µM | >100 µM | moderately or poorly active | – | – | – | – | – | – | – | – |
| CC[C@H](C)[C@H](NC(=O)[C@H](CCCCN)NC(=O)[C@H](CCCCN)NC(=O)[C@H](C)NC(=O)[C@H](CC(C)C)NC(=O)[C@H](C)NC(=O)[C@H](C)NC(=O)[C@H](CC(C)C)NC(=O)[C@H](C)NC(=O)[C@H](CCCCN)NC(=O)[C@H](CC(C)C)NC(=O)[C@H](CC(N)=O)NC(=O)[C@@H](NC(=O)[C@H](CCCCN)NC(=O)CNC(=O)[C@H](CC(C)C)NC(=O)[C@H](CC(C)C)NC(=O)[C@H](Cc1ccc(O)cc1)NC(=O)CNC(=O)[C@H](C)NC(=O)CCCC(=O)OC(Cn1cncn1)(Cn1cncn1)c1ccc(F)cc1F)[C@@H](C)CC)C(=O)N[C@@H](CC(C)C)C(N)=O [FLCpOH-TP10-NH2] | 45 µM (≈ 116 µg/mL) | 62 µM (≈ 160 µg/mL) | 45 µM (≈ 116 µg/mL) | 62 µM (≈ 160 µg/mL) | – | 28.81 ± 0.87 µM | – | 34.30 ± 1.00 µM | – | 250 µM (≈ 646 µg/mL) | 250 µM (≈ 646 µg/mL) | significant cell membrane damage | 1 log10 | – | – | – | – |
| O=C(O)CCCC(=O)OC(Cn1cncn1)(Cn1cncn1)c1ccc(F)cc1F [FLCpOH] | >250 µM | >250 µM | >250 µM | >250 µM | – | – | – | – | did not exert any antifungal activity | – | – | – | – | > 100 µM | >100 µM | > 100 µM | >100 µM |
